Assay results as given in patent US6828440B2, “Spiroindene and spiroindane compounds” (Euro-Celtique, S.A., priority 2001, dated 2004).

target: Mu opioid receptor (Homo sapiens, UniProt P35372); assay: Affinity at the μ receptor ([35S]GTPγS binding, membranes); details: GraphPad PRISM curve fitting, read-out: Mu Receptor Affinity calc Ki
Experimental: Affinity at the μ receptor for compounds was obtained according to the following assay:
Mu opioid receptor membrane solution was prepared by sequentially adding final concentrations of […] of the desired membrane protein, 10 μg/ml saponin, 3 μM GDP and 0.20 nM [^35S]GTPγS to binding buffer (100 mM NaCl, 10 mM MgCl2, 20 mM HEPES, pH 7.4) on ice. The prepared membrane solution (190 μl/well) was transferred to 96-shallow well polypropylene plates containing 10 μl of 20× concentrated stock solutions of agonist prepared in DMSO. Plates were incubated for 30 min at room temperature with shaking. Reactions were terminated by rapid filtration onto 96-well Unifilter GF/B filter plates (Packard) using a 96-well tissue harvester (Brandel) and followed by three filtration washes with 200 μl ice-cold binding buffer (10 mM NaH2PO4, 10 mM Na2HPO4, pH 7.4). Filter plates were subsequently dried at 50° C. for 2-3 hours. Fifty μl/well scintillation cocktail (MicroScint20, Packard) was added and plates were counted in a Packard Top-Count for 1 min/well.
Data were analyzed using the curve fitting functions in GraphPad PRISM™, v.3.0 and the results for several compounds are set forth in table 2 below: […]

Chain of Mu opioid receptor (P35372 whole entry, species assumed): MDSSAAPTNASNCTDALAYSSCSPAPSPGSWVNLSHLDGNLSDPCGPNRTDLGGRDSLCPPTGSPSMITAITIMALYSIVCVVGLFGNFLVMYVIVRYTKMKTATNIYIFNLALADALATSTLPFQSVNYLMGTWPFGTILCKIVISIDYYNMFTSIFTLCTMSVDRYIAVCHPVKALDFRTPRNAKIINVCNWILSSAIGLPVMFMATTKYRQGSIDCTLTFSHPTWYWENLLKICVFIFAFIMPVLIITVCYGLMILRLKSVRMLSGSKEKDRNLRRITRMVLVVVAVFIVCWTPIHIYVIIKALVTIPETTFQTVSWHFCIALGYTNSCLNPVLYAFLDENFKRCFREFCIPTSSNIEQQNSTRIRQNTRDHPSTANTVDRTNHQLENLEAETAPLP

Compound | Ki [nM]
CC(C)C1CCC(N2CCC3(CCc4ccccc43)CC2)CC1 (stereo not shown) [1-(4-(1-methylethyl)-cyclohexyl)-spiro[piperidine-4,1′-indane]] | 939
C1=CC2(CCN(C3CCCCCCC3)CC2)c2ccccc21 [1-(cyclooctyl)-spiro[piperidine-4,1′-indene]] | 2040
c1ccc2c(c1)CCC21CCN(Cc2cccc3ccccc23)CC1 [1-(naphth-1-yl-methyl)-spiro[piperidine-4,1′-indane]] | 1120
c1ccc2c(c1)CCC21CCN(Cc2ccc3ccccc3c2)CC1 [1-(naphth-2-yl-methyl)-spiro[piperidine-4,1′-indane]] | 593

target: T1, human opioid receptor-like receptor (ORL-1) (Homo sapiens, UniProt P41146); assay: Nociceptin affinity at the ORL1 receptor ([35S]GTPgS binding, membranes from recombinant HEK-293 cells); details: ORL-1 membranes from recombinant HEK-293 cells; GraphPad PRISM curve fitting; read-out: Nociceptin Affinity calc Ki
T1 construct: host or cells: HEK-293
Experimental: Nociceptin affinity at the ORL1 receptor for preferred compounds was obtained using the following assay:
Membranes from recombinant HEK-293 cells expressing the human opioid receptor-like receptor (ORL-1) (Receptor Biology) were prepared by lysing cells in ice-cold hypotonic buffer (2.5 mM MgCl2, 50 mM HEPES, pH 7.4) (10 ml/10 cm dish) followed by homogenization with a tissue grinder/teflon pestle. Membranes were collected by centrifugation at 30,000× g for 15 min at 4° C. and pellets resuspended in hypotonic buffer to a final concentration of 1-3 mg/ml. Protein concentrations were determined using the BioRad protein assay reagent with bovine serum albumen as standard. Aliquots of the ORL-1 receptor membranes were stored at −80° C.
Functional SGTPgS binding assays were conducted as follows. ORL-1 membrane solution was prepared by sequentially adding final concentrations of 0.066 mg/ml ORL-1 membrane protein, […], […] and 0.20 nM [^35S]GTPgS to binding buffer (100 mM NaCl, 10 mM MgCl2, 20 mM HEPES, pH 7.4) on ice. The prepared membrane solution ([…]) was transferred to 96-shallow well polypropylene plates containing […] of 20× concentrated stock solutions of agonist prepared in DMSO. Plates were incubated for 30 min at room temperature with shaking. Reactions were terminated by rapid filtration onto 96-well Unifilter GF/B filter plates (Packard) using a 96-well tissue harvester (Brandel) and followed by three filtration washes with […] ice-cold binding buffer (10 mM NaH2PO4, 10 mM Na2HPO4, pH 7.4). Filter plates were subsequently dried at 50° C. for 2-3 hours. […] scintillation cocktail (BetaScint; Wallac) was added and plates were counted in a Packard Top-Count for 1 min/well.
Data was analyzed using the curve fitting functions in GraphPad PRISMÔ, v.

T1 sequence (P41146 whole entry): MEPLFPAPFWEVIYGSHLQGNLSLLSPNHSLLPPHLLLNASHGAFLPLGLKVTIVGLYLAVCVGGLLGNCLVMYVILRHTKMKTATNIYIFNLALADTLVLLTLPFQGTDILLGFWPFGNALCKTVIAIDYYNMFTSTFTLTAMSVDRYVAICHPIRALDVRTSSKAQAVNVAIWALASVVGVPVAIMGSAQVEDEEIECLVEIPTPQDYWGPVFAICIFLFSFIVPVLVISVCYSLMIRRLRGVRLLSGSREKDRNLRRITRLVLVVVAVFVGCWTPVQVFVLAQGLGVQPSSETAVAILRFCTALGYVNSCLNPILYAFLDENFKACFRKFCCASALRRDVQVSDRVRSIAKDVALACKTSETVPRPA

Compound | Ki [nM]
c1ccc2c(c1)CC(N1CCC3(CCc4ccccc43)CC1)C2 [1-(1,3-dihydroinden-2-yl)-spiro[piperidine-4,1′-indane]] | > 10000
C1=CC2(CCN(C3Cc4ccccc4C3)CC2)c2ccccc21 [1-(1,3-dihydroinden-2-yl)-spiro[piperidine-4,1′-indene]] | 8500
C1=CC2(CCN(C3CCc4ccccc4C3)CC2)c2ccccc21 (stereo not shown) [1-(2-[1,2,3,4-tetrahydronaphthyl])-spiro[piperidine-4,1′-indene]] | 1200
c1ccc(CCN2CCC3(CCc4ccccc43)CC2)cc1 [1-(2-phenyl-ethyl)-spiro[piperidine-4,1′-indane]] | 921
C1=CC2(CCN(CCC(c3ccccc3)c3ccccc3)CC2)c2ccccc21 [1-(3,3-Bis(phenyl)propyl)-spiro[piperidine-4,1′-indene]] | 42
CC1(C)COC2(CCC(N3CCC4(CCc5ccccc54)CC3)CC2)OC1 [1-(3,3-dimethyl-1,5-dioxaspiro[5.5]undeca-9-yl)-spiro[piperidine-4,1′-indane]] | > 10000
CC1(C)COC2(CCC(N3CCC4(C=Cc5ccccc54)CC3)CC2)OC1 [1-(3,3-dimethyl-1,5-dioxaspiro[5.5]undeca-9-yl)-spiro[piperidine-4,1′-indene]] | > 10000
Fc1ccc(C(CCCN2CCC3(CCc4ccccc43)CC2)c2ccc(F)cc2)cc1 [1-(4,4-Bis(p-fluorophenyl)butyl)-spiro[piperidine-4,1′-indane]] | > 10000
CC(C)C1CCC(N2CCC3(CCc4ccccc43)CC2)CC1 (stereo not shown) [1-(4-(1-methylethyl)-cyclohexyl)-spiro[piperidine-4,1′-indane]] | 500
CCCC1CCC(N2CCC3(CCc4ccccc43)CC2)CC1 (stereo not shown) [1-(4-propyl-cyclohexyl)-spiro[piperidine-4,1′-indane]] | 2240
CC(C)CCC(C)N1CCC2(CCc3ccccc32)CC1 (stereo not shown) [1-(5-methylhex-2-yl)-spiro[piperidine-4,1′-indane]] | 676
CC(C)CCC(C)N1CCC2(C=Cc3ccccc32)CC1 (stereo not shown) [1-(5-methylhex-2-yl)-spiro[piperidine-4,1′-indene]] | 355
c1ccc2c(c1)CCc1ccccc1C2N1CCC2(CCc3ccccc32)CC1 [1-(10,11-Dihydro-5H-dibenzo[a,d]-cyclohepten-5-yl)-spiro[piperidine-4,1′-indane]] | > 10000
C1=CC2(CCN(C3c4ccccc4CCc4ccccc43)CC2)c2ccccc21 [1-(10,11-Dihydro-5H-dibenzo[a,d]-cyclohepten-5-yl)-spiro[piperidine-4,1′-indene]] | > 10000
c1ccc(CN2CCC3(CCc4ccccc43)CC2)cc1 [1-(benzyl)-spiro[piperidine-4,1′-indane]] | 879
c1ccc2c(c1)CCC21CCN(C2CCCCCCC2)CC1 [1-(cyclooctyl)-spiro[piperidine-4,1′-indane]] | 516
C1=CC2(CCN(C3CCCCCCC3)CC2)c2ccccc21 [1-(cyclooctyl)-spiro[piperidine-4,1′-indene]] | 500
c1ccc2c(c1)CCC21CCN(CC2CCCCCCC2)CC1 [1-(cyclooctylmethyl)-spiro[piperidine-4,1′-indane]] | 153

Compound | Ki [nM]
C1=CC2(CCN(CC3CCCCCCC3)CC2)c2ccccc21 [1-(cyclooctylmethyl)-spiro[piperidine-4,1′-indene]] | 309
c1ccc2c(c1)CCC21CCN(C2CCC3CCCCC3C2)CC1 (stereo not shown) [1-(decahydro-2-naphthyl)-spiro[piperidine-4,1′-indane]] | 3140
C1=CC2(CCN(C3CCC4CCCCC4C3)CC2)c2ccccc21 (stereo not shown) [1-(decahydro-2-naphthyl)-spiro[piperidine-4,1′-indene]] | 1290
c1ccc2c(c1)CCC21CCN(Cc2cccc3ccccc23)CC1 [1-(naphth-1-yl-methyl)-spiro[piperidine-4,1′-indane]] | 146
O=C1Cc2ccccc2C12CCN(Cc1ccc3ccccc3c1)CC2 [1-(naphth-2-yl-methyl)-spiro[piperidine-4,1′-(2-oxo)-indane]] | 83
O=C1CC2(CCN(Cc3ccc4ccccc4c3)CC2)c2ccccc21 [1-(naphth-2-yl-methyl)-spiro[piperidine-4,1′-(3-oxo)-indane]] | 419
c1ccc2cc(CN3CCC4(CCC5CCCCC54)CC3)ccc2c1 (stereo not drawn) [1-(naphth-2-yl-methyl)-spiro[piperidine-4,1′-cis-3a, 4,5,6,7,7a-hexahydroindane]] | 306
c1ccc2c(c1)CCC21CCN(Cc2ccc3ccccc3c2)CC1 [1-(naphth-2-yl-methyl)-spiro[piperidine-4,1′-indane]] | 35
C1=CC2(CCN(Cc3ccc4ccccc4c3)CC2)c2ccccc21 [1-(naphth-2-yl-methyl)-spiro[piperidine-4,1′-indene]] | 36
C1=CC2(CCN(C3CC4CCC3C4)CC2)c2ccccc21 (stereo not shown) [1-(norbornan-2-yl)-spiro[piperidine-4,1′-indene]] | 6470
c1ccc2c(c1)CCC21CCN(C2C3CCC2CC3)CC1 (stereo not shown) [1-(norbornan-7-yl)-spiro[piperidine-4,1′-indane]] | 913
c1ccc(COc2ccc(CN3CCC4(CCc5ccccc54)CC3)cc2)cc1 [1-(p-benzyloxybenzyl)-spiro[piperidine-4,1′-indane]] | 877
C1=CC2(CCN(Cc3ccc(OCc4ccccc4)cc3)CC2)c2ccccc21 [1-(p-benzyloxybenzyl)-spiro[piperidine-4,1′-indene]] | 1560
N#Cc1ccc(CN2CCC3(CCc4ccccc43)CC2)cc1 [1-(p-cyano-benzyl)-spiro[piperidine-4,1′-indane]] | 1530
c1ccc(-c2ccc(CN3CCC4(CCc5ccccc54)CC3)cc2)cc1 [1-(p-phenylbenzyl)-spiro[piperidine-4,1′-indane]] | 1210
CC(C)C1CCC(N2CCC3(C=Cc4ccccc43)CC2)CC1 (stereo not shown) [1-[4-(2-propyl)-cyclohexyl]-spiro[piperidine-4,1′-indene]] | 292
c1ccc2c(c1)CCC21CCN(C2CC3CCC2C3)CC1 (stereo not shown) [1-[norbornan-2-yl]-spiro[piperidine-4,1′-indane]] | 7210
C1=CC2(CCN(C3CCCCCCCCC3)CC2)c2ccccc21 [1-cyclodecyl-spiro[piperidine-4,1′-indene]] | 427
